Measurements reported in ChEMBL document CHEMBL1641435, “DR396, an apoptotic DNase γ inhibitor, attenuates high mobility group box 1 release from apoptotic cells” (Bioorg Med Chem, 2011).
The source made the active and inactive calls. The calls are words filed in the database; no cut-off is given here.

Columns and labels:
[1] = biological target: T1, Deoxyribonuclease gamma (Homo sapiens) (UniProt Q13609); settings: HeLa S3; 30 uM
T1 sequence (whole entry): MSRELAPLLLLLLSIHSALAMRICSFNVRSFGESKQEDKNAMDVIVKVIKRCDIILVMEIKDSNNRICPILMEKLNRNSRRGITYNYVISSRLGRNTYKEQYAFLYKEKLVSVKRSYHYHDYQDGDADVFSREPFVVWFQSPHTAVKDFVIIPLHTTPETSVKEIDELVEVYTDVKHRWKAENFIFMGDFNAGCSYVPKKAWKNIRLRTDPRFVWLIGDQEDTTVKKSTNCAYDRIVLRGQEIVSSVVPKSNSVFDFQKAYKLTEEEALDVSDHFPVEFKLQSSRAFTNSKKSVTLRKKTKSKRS
Description: Inhibition of DNase gamma-mediated nucleosomal DNA fragmentation expressed in human staurosporine-induced HeLaS3 cells at 30 uM treated 1 hr before staurosporine challenge measured after 24 hrs by Western blotting

[2] = test system: HeLa S3; test: Inhibition of HMGB1 release in human staurosporine-induced HeLaS3 cells at 100 uM treated 1 hr before staurosporine challenge measured after 24 hrs by Western blotting; assay type: functional
[3] = biological target: T2, Deoxyribonuclease gamma (Homo sapiens, UniProt Q13609); test: Inhibition of DNase gamma-mediated HMGB1 release expressed in human staurosporine-induced HeLaS3 cells treated 1 hr before staurosporine challenge measured after 24 hrs by Western blotting
T2 sequence (Q13609 whole entry): T1 sequence (whole entry)

[4] = biological target: T1, Deoxyribonuclease gamma (Homo sapiens); test: (§1) Inhibition of human recombinant DNase gamma expressed in Rosetta DE3 cells assessed as increase in acid soluble DNA after 30 mins; assay type: cell-based
[5] = biological target: T2, Deoxyribonuclease gamma; test: as §1; assay type: cell-based

Row | inhibition [1] [%] | IC50 [3] [µM] | inhibition [4] | IC50 [5] [µM] | Structure (SMILES) | inhibition [2] | inhibition at 100 µM [2] [%]
1 | 50 | 30 | Dose-dependent effect | 3.2 | O=C(O)c1ccc(Nc2nc(Cl)nc(Cl)n2)cc1-c1c2ccc(=O)cc-2oc2cc(O)ccc12 | Active | –
2 | – | – | Dose-dependent effect | 16.1 | O=S(=O)(O)c1cc(O)c2c(O)c(/N=N/c3cccc4ccccc34)c(S(=O)(=O)O)cc2c1 [PONTACYL VIOLET 6R] | – | 50
3 | – | – | Dose-dependent effect | 34.5 | O=C(N[C@H](CC1CCCCC1)C(=O)O)OCC1c2ccccc2-c2ccccc21 | – | 20
